Data taken from article PMC6901909, “Synergy Pattern of Short Cationic Antimicrobial Peptides Against Multidrug-Resistant Pseudomonas aeruginosa” (Frontiers in Microbiology, 2019).
≈ marks a conversion by molar mass, not a printed value. Where two headings read alike, the source gives them in different places. Peptide text beside a SMILES is read from it.

Legend:
MDR P. aeruginosa PA 915 = test: microbe, parasite or virus in culture; format: cell-based, Pseudomonas aeruginosa; details: Pseudomonas aeruginosa; conventional antibiotics; microdilution, Mueller-Hinton broth, 2–5 10^5 CFU/ml, 18 h at 37°C, read visually; at least three repeats (n = 3)
In short: (§1)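 Clinical and municipal waste-water MDR isolates were tested by broth microdilution in Mueller-Hinton broth with twofold serial dilutions at 2–5 10^5 CFU/ml. Plates were incubated 18 h at 37°C in polypropylene plates. MIC was read visually.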

P. aeruginosa PA01-wt = test: microbe, parasite or virus in culture; format: cell-based, Pseudomonas aeruginosa; details: for MIC: Pseudomonas aeruginosa, PA01WT, conventional antibiotics, 2–5 10^5 CFU/ml, at least three repeats (n = 3)
MDR P. aeruginosa PA 919 = test: microbe, parasite or virus in culture; format: cell-based, Pseudomonas aeruginosa; details: for MIC: Pseudomonas aeruginosa, conventional antibiotics, 2–5 10^5 CFU/ml, at least three repeats (n = 3)
In short: as §1

MDR P. aeruginosa PA 923 = test: microbe, parasite or virus in culture; format: cell-based, Pseudomonas aeruginosa; details: Pseudomonas aeruginosa; conventional antibiotics; microdilution, Mueller-Hinton broth, 2–5 10^5 CFU/ml, 18 h at 37°C, read visually; at least three repeats (n = 3)
In short: as §1

MDR P. aeruginosa PA 927 = test: microbe, parasite or virus in culture; format: cell-based, Pseudomonas aeruginosa; details: Pseudomonas aeruginosa; conventional antibiotics; microdilution, Mueller-Hinton broth, 2–5 10^5 CFU/ml, 18 h at 37°C, read visually; at least three repeats (n = 3)
In short: as §1

MDR P. aeruginosa PA253 = test: microbe, parasite or virus in culture; format: cell-based, Pseudomonas aeruginosa; details: for MIC: Pseudomonas aeruginosa, conventional antibiotics, 2–5 10^5 CFU/ml, at least three repeats (n = 3)
In short: as §1

MDR P. aeruginosa PA 910 = test: microbe, parasite or virus in culture; format: cell-based, Pseudomonas aeruginosa; details: for MIC: Pseudomonas aeruginosa; for MIC against PA910 in μM (peptides, Table 4): peptide alone
In short: as §1

[1] = test system: MDR isolate of P. aeruginosa (PA 910); details: checkerboard, MHb, for the Indopt versions 1/8 MHb, 2–5 × 10^5 CFU/ml, 37°C, 18 h, visual, determined once (n = 1); for FIC, combination with AMI: peptide + amikacin; for FIC, combination with CEF: peptide + cefepime; for FIC, combination with CET: peptide + ceftazidime; for FIC, combination with CIP: peptide + ciprofloxacin; for FIC, combination with ERY: peptide + erythromycin; for FIC, combination with GEN: peptide + gentamycin; for FIC, combination with IMI: peptide + imipenem; for FIC, combination with KAN: peptide + kanamycin; for FIC, combination with MER: peptide + meropenem; for FIC, combination with PIP: peptide + piperacillin; for FIC, combination with PMB: peptide + polymyxin B; for FIC, combination with TET: peptide + tetracycline; for FIC, combination with TOB: peptide + tobramycin
Method: The checkerboard assay was used to determine the fractional inhibitory concentrations (FICs), following the protocol described in Koneman’s Color Atlas and Textbook of Diagnostic Microbiology ([Winn et al., 2006]). Briefly, combinations of peptides and antibiotics were prepared in 96-well plates (polypropylene, Corning) in a twofold dilution series. After the addition of a log-phase bacterial inoculum of 2–5 × 10^5 CFU/ml, plates were incubated at 37°C for 18 h. The FICs were determined by visual inspection and the effects of the combinations were determined using the FICs. The FIC was computed by adding two partial FIC values, FICA—the MIC of drug A, tested in combination with drug B divided by the MIC of drug A, tested alone and FICB—the MIC of drug B, tested in combination with drug A divided by the MIC of drug B, tested alone [FIC = FICA + FICB = (MICAB/MICA) + (MICBA/MICB), where MICA and MICB are the MICs of drugs A and B alone, respectively, and MICAB and MICBA are the MIC concentrations of the drugs in combination]. Here we use the European Committee for Antimicrobial Susceptibility Testing (EUCAST) definition, which is very similar to the definition provided by [Odds, 2003], except Odds define additive effects when FIC values are between 0.5 and 1 ([European Committee for Antimicrobial Susceptibility Testing [EUCAST] of the European Society of Clinical Microbiology and Infectious Diseases [ESCMID], 2000]; [Odds, 2003]). The combination of peptide (drug A) and antibiotics (drug B) was defined as synergistic if the FIC was ≤ 0.5, indifferent if the FIC was > 0.5 but ≤ 4.0 and antagonistic if the FIC was > 4.0.

[2] = microdilution, Mueller-Hinton broth, 18 h at 37°C, read visually
[3] = 18 h, antibiotic alone, as listed in the FIC table, read-out: MIC against PA910 in μM (antibiotics, head of Table 4)
[4] = conventional antibiotics, microdilution, Mueller-Hinton broth, 2–5 10^5 CFU/ml, 18 h at 37°C, read visually, at least three repeats (n = 3), read-out: MIC PA 910
[5] = four classes defined from the MIC values, 1 strong to 4 weak
[6] = short AMPs, microdilution, Mueller-Hinton broth, 18 h at 37°C, read visually, triplicate (n = 3)

Structure (SMILES) | MIC (MDR P. aeruginosa PA 915) [µM] | MIC (P. aeruginosa PA01-wt; [2]) [µM] | MIC (MDR P. aeruginosa PA 919; [2]) [µM] | MIC (MDR P. aeruginosa PA 923) [µM] | MIC (MDR P. aeruginosa PA 927) [µM] | MIC (MDR P. aeruginosa PA253; [2]) [µM] | MIC (MDR P. aeruginosa PA 910; [3]) [µM] | MIC (MDR P. aeruginosa PA 910; [4]) [µM] | MIC against PA910 in μM (peptides, Table 4) (MDR P. aeruginosa PA 910; as listed in the FIC table) [µM] | FIC, combination with AMI [1] | FIC, combination with CEF [1] | FIC, combination with CET [1] | FIC, combination with CIP [1] | FIC, combination with ERY [1] | FIC, combination with GEN [1] | FIC, combination with IMI [1] | FIC, combination with KAN [1] | FIC, combination with MER [1] | FIC, combination with PIP [1] | FIC, combination with PMB [1] | also measured
NCC[C@H](O)C(=O)N[C@@H]1C[C@H](N)[C@@H](O[C@H]2O[C@H](CN)[C@@H](O)[C@H](O)[C@H]2O)[C@H](O)[C@H]1O[C@H]1O[C@H](CO)[C@@H](O)[C@H](N)[C@H]1O [Amikacin] | 4 (≈ 2.34 µg/mL) | 1 (≈ 0.586 µg/mL) | 32 (≈ 18.7 µg/mL) | 4 (≈ 2.34 µg/mL) | 4 (≈ 2.34 µg/mL) | 8 to 16 (≈ 4.68 to 9.37 µg/mL) | 2 to 4 | 2 to 4 (≈ 1.17 to 2.34 µg/mL) |  |  |  |  |  |  |  |  |  |  |  |  | 
CO/N=C(\C(=O)N[C@@H]1C(=O)N2C(C(=O)[O-])=C(C[N+]3(C)CCCC3)CS[C@H]12)c1csc(N)n1 [Cefepime] | 32 (≈ 15.4 µg/mL) | 8 (≈ 3.84 µg/mL) | 16 (≈ 7.69 µg/mL) | 64 (≈ 30.8 µg/mL) | 128 (≈ 61.5 µg/mL) | > 128 | 128 | 64 (≈ 30.8 µg/mL) |  |  |  |  |  |  |  |  |  |  |  |  | 
CC(C)(O/N=C(\C(=O)N[C@@H]1C(=O)N2C(C(=O)[O-])=C(C[n+]3ccccc3)CS[C@H]12)c1csc(N)n1)C(=O)O [Ceftazidime] | 4 (≈ 2.19 µg/mL) | 4 (≈ 2.19 µg/mL) | 8 (≈ 4.37 µg/mL) | 128 (≈ 70 µg/mL) | > 128 | > 128 | 64 | 128 (≈ 70 µg/mL) |  |  |  |  |  |  |  |  |  |  |  |  | 
CC[C@H]1OC(=O)[C@H](C)[C@@H](O[C@H]2C[C@@](C)(OC)[C@@H](O)[C@H](C)O2)[C@H](C)[C@@H](O[C@@H]2O[C@H](C)C[C@H](N(C)C)[C@H]2O)[C@](C)(O)C[C@@H](C)C(=O)[C@H](C)[C@@H](O)[C@]1(C)O [Erythromycin] | 64 (≈ 47 µg/mL) | 128 (≈ 93.9 µg/mL) | 128 (≈ 93.9 µg/mL) | 256 (≈ 188 µg/mL) | 16 (≈ 11.7 µg/mL) | 64 (≈ 47 µg/mL) | 128 | 128 (≈ 93.9 µg/mL) |  |  |  |  |  |  |  |  |  |  |  |  | 
CC[C@H](C)[C@H](NC(=O)[C@H](CCCCN)NC(=O)[C@H](CCC(=O)O)NC(=O)[C@H](CCCCN)NC(=O)[C@H](CO)NC(=O)[C@H](CCCCN)NC(=O)[C@H](CCCNC(=N)N)NC(=O)[C@H](Cc1ccccc1)NC(=O)[C@H](Cc1ccccc1)NC(=O)[C@H](CC(=O)O)NC(=O)CNC(=O)[C@H](CC(C)C)NC(=O)[C@@H](N)CC(C)C)C(=O)NCC(=O)N[C@@H](CCCCN)C(=O)N[C@@H](CCC(=O)O)C(=O)N[C@@H](Cc1ccccc1)C(=O)N[C@@H](CCCCN)C(=O)N[C@@H](CCCNC(=N)N)C(=O)N[C@H](C(=O)N[C@H](C(=O)N[C@@H](CCC(N)=O)C(=O)N[C@@H](CCCNC(=N)N)C(=O)N[C@H](C(=O)N[C@@H](CCCCN)C(=O)N[C@@H](CC(=O)O)C(=O)N[C@@H](Cc1ccccc1)C(=O)N[C@@H](CC(C)C)C(=O)N[C@@H](CCCNC(=N)N)C(=O)N[C@@H](CC(N)=O)C(=O)N[C@@H](CC(C)C)C(=O)N[C@H](C(=O)N1CCC[C@H]1C(=O)N[C@@H](CCCNC(=N)N)C(=O)N[C@H](C(=O)N[C@@H](CCC(=O)O)C(=O)N[C@@H](CO)C(=O)O)[C@@H](C)O)C(C)C)[C@@H](C)CC)C(C)C)[C@@H](C)CC [LL37] |  |  |  |  |  |  |  |  | 64 | 2 | 2 | 0.75 | 0.51 | 0.51 | 2 | 1 | 1 | 0.51 | 2 | 0.63 | activity class by MIC (number in brackets), PA01 wt (P. aeruginosa PA01-wt; [5]): 3 (class 3 includes peptides with MIC values between 16 and 32 μM); MIC against PA01 wt (P. aeruginosa PA01-wt; [6]): 16 µM (≈ 71.9 µg/mL); activity class by MIC (number in brackets), PA919 (MDR P. aeruginosa PA 919; [5]): 3 (class 3 includes peptides with MIC values between 16 and 32 μM); MIC against MDR isolates of PA, PA919 (MDR P. aeruginosa PA 919; [6]): 16 µM; activity class by MIC (number in brackets), PA253 (MDR P. aeruginosa PA253; [5]): 4 (the least active class includes peptides with MIC values larger than 32 μM); MIC against MDR isolates of PA, PA253 (MDR P. aeruginosa PA253; [6]): 64 µM; activity class by MIC (number in brackets), PA910 (MDR P. aeruginosa PA 910; [5]): 4 (the least active class includes peptides with MIC values larger than 32 μM); MIC against MDR isolates of PA, PA910 (MDR P. aeruginosa PA 910; [6]): 64 µM; FIC, combination with TET [1]: 0.5; FIC, combination with TOB [1]: 2
CC[C@H](C)[C@H](NC(=O)[C@H](CCCNC(=N)N)NC(=O)[C@H](Cc1c[nH]c2ccccc12)NC(=O)[C@H](CC(C)C)NC(=O)[C@@H](N)CCCNC(=N)N)C(=O)N[C@H](C(=O)N[C@H](C(=O)N[C@H](C(=O)N[C@@H](CCCNC(=N)N)C(=O)N[C@H](C(=O)N[C@@H](CCCCN)C(=O)N[C@@H](CCCNC(=N)N)C(N)=O)C(C)C)[C@@H](C)CC)C(C)C)C(C)C [Sub 7] (H-RLWRIVVIRVKR-NH2) |  |  |  |  |  |  |  |  | 32 | 0.53 | 0.56 | 0.56 | 0.75 | 0.5 | 0.75 | 2 | 0.63 | 0.51 | 0.53 | 1 | MIC against PA01 wt (P. aeruginosa PA01-wt; -wt, 18 h): 16 µM (≈ 25.5 µg/mL); MIC against MDR isolates of PA, PA919 (MDR P. aeruginosa PA 919; MDR PA 919, 18 h): 32 µM; MIC against MDR isolates of PA, PA253 (MDR P. aeruginosa PA253; MDR PA253, 18 h): 16 µM; FIC, combination with TET [1]: 0.5; FIC, combination with TOB [1]: 2
